Data reported in US20240108006A1, “PESTICIDALLY ACTIVE HETEROAROMATIC COMPOUNDS” (SYNGENTA CROP PROTECTION AG, priority 2021, published 2024).

How the values were obtained:
Format in all cases: in vivo
Chilo suppressalis = test: Example B1: Chilo suppressalis (striped rice stemborer), artificial diet, L2 larvae; conditions: 144 h, application rate of 200 ppm, 6 days after infestation, read-out: control in at least one of the three categories (mortality, anti-feedant effect, or growth inhibition)
How it was run: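 L2 larvae (6-8 per well) were placed on dried artificial diet that had been dosed with aqueous dilutions of 10,000 ppm DMSO stock solutions. After 6 days, control was credited if mortality, antifeedant effect or growth inhibition was higher than in untreated samples.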

Spodoptera littoralis = test: Example B9: Spodoptera littoralis (Egyptian cotton leaf worm), cotton leaf discs, L1 larvae; conditions: foliar, 72 h, application rate of 200 ppm, 3 days after infestation, read-out: control in at least one of the three categories (mortality, anti-feedant effect, or growth inhibition)
Experimental: Example B9: Spodoptera littoralis (Egyptian Cotton Leaf Worm)
Cotton leaf discs were placed onto agar in 24-well microtiter plates and sprayed with aqueous test solutions prepared from 10,000 ppm DMSO stock solutions. After drying the leaf discs were infested with five L1 larvae. The samples were assessed for mortality, anti-feeding effect, and growth inhibition in comparison to untreated samples 3 days after infestation. Control of Spodoptera littoralis by a test sample is given when at least one of the categories mortality, anti-feedant effect, and growth inhibition is higher than the untreated sample.

Plutella xylostella = test: Example B8: Plutella xylostella (diamond back moth), artificial diet 24-well, eggs; conditions: 192 h, application rate of 200 ppm, 8 days after infestation, read-out: effect in at least one of the two categories (mortality or growth inhibition)
How it was run: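 Plutella eggs placed onto dried, compound-treated artificial diet, the aqueous test solutions diluted from 10,000 ppm DMSO stocks. Eight days post-infestation, larvae rated for mortality and growth inhibition relative to untreated controls.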

Structure (SMILES) | percent control (mortality, anti-feedant effect or growth inhibition) at 200 ppm (Chilo suppressalis) | percent control (mortality, anti-feedant effect or growth inhibition) at 200 ppm (Spodoptera littoralis) | percent effect (mortality or growth inhibition) at 200 ppm (Plutella xylostella)
C[C@H](NC(=O)Nc1cc(Br)c(F)cc1Cl)c1ncnn1-c1ncccn1 [Example P388, 1-(5-bromo-2-chloro-4-fluoro-phenyl)-3-[(1S)-1-(2-pyrimidin-2-yl-1,2,4-triazol-3-yl)ethyl]urea] | ≥ 80% | ≥ 80% | ≥ 80%
C[C@H](NC(=O)Nc1ccc(Cl)c(C(F)(F)F)c1)c1ncnn1-c1ncccn1 [Example P131, 1-[4-chloro-3-(trifluoromethyl)phenyl]-3-[(1S)-1-(2-pyrimidin-2-yl-1,2,4-triazol-3-yl)ethyl]urea] | ≥ 80% | ≥ 80% | 
C[C@H](NC(=S)Nc1ccc(C(F)(F)F)cc1Cl)c1ncnn1-c1ncccn1 [Example P129, 1-[2-chloro-4-(trifluoromethyl)phenyl]-3-[(1S)-1-(2-pyrimidin-2-yl-1,2,4-triazol-3-yl)ethyl]thiourea] | ≥ 80% | ≥ 80% | ≥ 80%
C[C@H](NC(=O)Nc1ccc(Br)cc1I)c1ncnn1-c1ncccn1 [Example P76, 1-(4-bromo-2-iodo-phenyl)-3-[(1S)-1-(2-pyrimidin-2-yl-1,2,4-triazol-3-yl)ethyl]urea] | ≥ 80% | ≥ 80% | ≥ 80%
C[C@H](NC(=O)Nc1cnc(Br)cc1Br)c1nccnc1-c1ccc(C#N)cn1 [Example P248, 1-[(1S)-1-[3-(5-cyano-2-pyridyl)pyrazin-2-yl]ethyl]-3-(4,6-dibromo-3-pyridyl)urea] | ≥ 80% | ≥ 80% | ≥ 80%
Cc1cc(Cl)c(Cl)cc1NC(=O)N[C@@H](C)c1ncnn1-c1ncccn1 [Example P191, 1-(4,5-dichloro-2-methyl-phenyl)-3-[(1S)-1-(2-pyrimidin-2-yl-1,2,4-triazol-3-yl)ethyl]urea] |  | ≥ 80% | ≥ 80%
C#CCOc1cc(NC(=O)N[C@@H](C)c2ncnn2-c2ncccn2)c(F)cc1Br [Example P203, 1-(4-bromo-2-fluoro-5-prop-2-ynoxy-phenyl)-3-[(1S)-1-(2-pyrimidin-2-yl-1,2,4-triazol-3-yl)ethyl]urea] |  | ≥ 80% | ≥ 80%
CC(NC(=O)Nc1ccc(C(F)(F)F)cc1I)c1nccnc1-c1ncccn1 (stereo not drawn) [Example P243, 1-[2-iodo-4-(trifluoromethyl)phenyl]-3-[1-(3-pyrimidin-2-ylpyrazin-2-yl)ethyl]urea] | ≥ 80% | ≥ 80% | ≥ 80%
C[C@H](NC(=O)Nc1cc(Oc2ccc(C(F)(F)F)cn2)c(Cl)cc1Cl)c1ncnn1-c1ncccn1 [Example P209, 1-[2,4-dichloro-5-[[5-(trifluoromethyl)-2-pyridyl]oxy]phenyl]-3-[(1S)-1-(2-pyrimidin-2-yl-1,2,4-triazol-3-yl)ethyl]urea] |  | ≥ 80% | ≥ 80%
CC(NC(=O)Nc1ccc(C(F)(F)F)cc1I)c1nccnc1-n1nccn1 (stereo not drawn) [Example P263, 1-[2-iodo-4-(trifluoromethyl)phenyl]-3-[1-[3-(triazol-2-yl)pyrazin-2-yl]ethyl]urea] | ≥ 80% | ≥ 80% | ≥ 80%
C[C@H](NC(=O)Nc1cc(O)c(Cl)cc1Cl)c1ncnn1-c1ncccn1 [Example P237, 1-(2,4-dichloro-5-hydroxy-phenyl)-3-[(1S)-1-(2-pyrimidin-2-yl-1,2,4-triazol-3-yl)ethyl]urea] | ≥ 80% | ≥ 80% | ≥ 80%
C[C@H](NC(=O)Nc1cc(OC(F)(F)C(F)F)c(Cl)cc1Cl)c1ncnn1-c1ccc(C#N)cn1 [Example P251, 1-[(1S)-1-[2-(5-cyano-2-pyridyl)-1,2,4-triazol-3-yl]ethyl]-3-[2,4-dichloro-5-(1,1,2,2-tetrafluoroethoxy)phenyl]urea] | ≥ 80% | ≥ 80% | ≥ 80%
C[C@H](NC(=O)Nc1ccc(C(F)(F)F)cc1I)c1nccnc1-c1ccc(C#N)cn1 [Example P249, 1-[(1S)-1-[3-(5-cyano-2-pyridyl)pyrazin-2-yl]ethyl]-3-[2-iodo-4-(trifluoromethyl)phenyl]urea] | ≥ 80% | ≥ 80% | ≥ 80%
C[C@H](NC(=O)Nc1ccc(Cl)c(C(F)(F)F)c1)c1nccnc1-c1ncccn1 [Example P11, 1-[4-chloro-3-(trifluoromethyl)phenyl]-3-[(1S)-1-(3-pyrimidin-2-ylpyrazin-2-yl)ethyl]urea] |  | ≥ 80% | ≥ 80%
C[C@H](NC(=O)Nc1cc(Cl)c(Br)cc1F)c1ncnn1-c1ncccn1 [Example P373, 1-(4-bromo-5-chloro-2-fluoro-phenyl)-3-[(1S)-1-(2-pyrimidin-2-yl-1,2,4-triazol-3-yl)ethyl]urea] | ≥ 80% | ≥ 80% | 
C[C@H](NC(=S)Nc1ccc(Cl)c(C(F)(F)F)c1)c1ncnn1-c1ncccn1 [Example P15, 1-[4-chloro-3-(trifluoromethyl)phenyl]-3-[(1S)-1-(2-pyrimidin-2-yl-1,2,4-triazol-3-yl)ethyl]thiourea] | ≥ 80% | ≥ 80% | 
C[C@H](NC(=O)Nc1cc(Cl)c(Oc2ncc(C(F)(F)F)cc2Cl)c(Cl)c1)c1ncnn1-c1ncccn1 [Example P26, 1-[3,5-dichloro-4-[[3-chloro-5-(trifluoromethyl)-2-pyridyl]oxy]phenyl]-3-[(1S)-1-(2-pyrimidin-2-yl-1,2,4-triazol-3-yl)ethyl]urea] |  | ≥ 80% | ≥ 80%
C[C@H](NC(=O)Nc1ccc(Br)cc1OC(F)F)c1ncnn1-c1ccc(C#N)cn1 [Example P254, 1-[4-bromo-2-(difluoromethoxy)phenyl]-3-[(1S)-1-[2-(5-cyano-2-pyridyl)-1,2,4-triazol-3-yl]ethyl]urea] |  | ≥ 80% | ≥ 80%
C[C@H](NC(=O)Nc1cc(Br)c(C(F)(F)F)cc1F)c1ncnn1-c1ncccn1 [Example P350, 1-[5-bromo-2-fluoro-4-(trifluoromethyl)phenyl]-3-[(1S)-1-(2-pyrimidin-2-yl-1,2,4-triazol-3-yl)ethyl]urea] | ≥ 80% | ≥ 80% | 
COc1cc(F)c(F)cc1NC(=O)N[C@@H](C)c1ncnn1-c1ncccn1 [Example P383, 1-(4,5-difluoro-2-methoxy-phenyl)-3-[(1S)-1-(2-pyrimidin-2-yl-1,2,4-triazol-3-yl)ethyl]urea] | ≥ 80% | ≥ 80% | 
C[C@H](NC(=O)Nc1cc2c(cc1Cl)OCO2)c1ncnn1-c1ncccn1 [Example P370, 1-(6-chloro-1,3-benzodioxol-5-yl)-3-[(1S)-1-(2-pyrimidin-2-yl-1,2,4-triazol-3-yl)ethyl]urea] | ≥ 80% | ≥ 80% | 
COC(=O)c1cc2c(cc1NC(=O)N[C@@H](C)c1ncnn1-c1ncccn1)OC(F)(F)O2 [Example P369, methyl 2,2-difluoro-6-[[(1S)-1-(2-pyrimidin-2-yl-1,2,4-triazol-3-yl)ethyl]carbamoylamino]-1,3-benzodioxole-5-carboxylate] |  | ≥ 80% | ≥ 80%
CC(NC(=O)Nc1cnc(Br)cc1Br)c1nccnc1-c1ncccn1 (stereo not drawn) [Example P242, 1-(4,6-dibromo-3-pyridyl)-3-[1-(3-pyrimidin-2-ylpyrazin-2-yl)ethyl]urea] | ≥ 80% | ≥ 80% | 
C[C@H](NC(=O)Nc1cc(Br)c(F)cc1F)c1ncnn1-c1ncccn1 [Example P343, 1-(5-bromo-2,4-difluoro-phenyl)-3-[(1S)-1-(2-pyrimidin-2-yl-1,2,4-triazol-3-yl)ethyl]urea] | ≥ 80% | ≥ 80% | 
